Experimental data reported in patent publication US11834453B2, “Substituted pyrimido[5,4-d]pyrimidines as HER2 inhibitors” (Array BioPharma Inc., priority 2020, dated 2023).

Tests used:
[1] = target: ErbB2 with Exon 20 YVMA insertion (HER2-YVMA) (Homo sapiens (Human), UniProt P04626, INS775YVMA); experiment: Cellular phosphorylation assay, constitutive ErbB2 phosphorylation (Y1196) in engineered NIH 3T3 cells, Assay 4; assay type: cell-based
Method in brief: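 Engineered NIH 3T3 cells expressing HER2-YVMA treated with compounds 1 h at 37 °C, then formaldehyde-fixed and methanol-permeabilized. pErbB2 Y1196 detected by in-cell infrared immunofluorescence, normalized to GAPDH. IC50 from the normalized curves.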

[2] = target: MDR1 (P-gp) (Homo sapiens (Human), UniProt P08183); experiment: MDR1 transfected LLC-PK1 permeability/efflux, Assay 6; conditions: pig
Description: Both MDR1 transfected LLC-PK1 (Assay 6) and MDR1 transfected MDCKII canine Mdr1 knockout cells (Assay 7) were cultured and plated according to manufacturer's recommendations with the exception that the passage media for the MDR1 transfected LLC-PK1 cell line contained only 2% fetal bovine serum so as to extend passage time out to seven days.
Both positive and negative controls were used to assess functionality of P-gp or BCRP efflux in the assays. Stock solutions for assay controls and the test article were prepared in DMSO for final test concentration of 1 μM. Final organic concentration in the assay was 1%. All dosing solutions contained 10 μM lucifer yellow to monitor MDCKII cell monolayer integrity.
For the apical to basolateral determination (A to B), 75 μL of the test article in transport buffer were added to the apical side of the individual transwells and 250 μL of basolateral media, without compound or lucifer yellow, were added to each well. For the basolateral to apical determination (B to A), 250 μL of test article in transport buffer were added to each well and 75 μL transport buffer, without compound or lucifer yellow, were added to each transwell. All tests were performed in triplicate, and each compound was tested for both apical to basolateral and basolateral to apical transport. The plates were incubated for 2 hours on a Lab-Line Instruments Titer Orbital Shaker (VWR, West Chester, PA) at 50 rpm and 37° C. with 5% CO2. All culture plates were removed from the incubator, 50 μL of media were removed from the apical and basolateral portion of each well, and added to 150 μL of 1 μM labetalol in 2:1 acetonitrile (ACN): H2O, v/v.
The plates were read using a Molecular Devices (Sunnyvale, CA) Gemini Fluorometer to evaluate the lucifer yellow concentrations at excitation/emission wavelengths of 425/535 nm. These values were accepted when found to be below 2% for apical to basolateral and 5% basolateral to apical flux across the MDR1-transfected LLC-PK1 or BCRP-transfected MDCKII cell monolayers. The plates were sealed, and the contents of each well analyzed by LC MS/MS. The compound concentrations were determined from the ratio of the peak areas of the compound to the internal standard (labetalol) in comparison to the dosing solution.
A MDS Sciex API 4000 (Applied Biosystems, Foster City, CA) mass spectrometer was used for detection of the analytes in the ion spray positive mode. Analyte responses were measured by multiple reaction monitoring (“MRM”) of transitions unique to each compound (the protonated precursor ion and selected product ions for each test article and m/z 329 to m/z 162 for labetalol, the internal standard.
The total run time, including re-equilibration, for a single injection was 1.2 minutes. […] The total run time, including re-equilibration, for a single injection was 0.61 minutes.
An efflux ratio is calculated from the mean apical to basolateral (A-B) Papp data and basolateral to apical (B-A) Papp data: Efflux ratio=Papp(B−A)/Papp(A−B)

[3] = target: ErbB2 WT (Homo sapiens (Human), UniProt P04626); experiment: ErbB enzyme assay (CisBio HTRF KinEASE-TK), Assay 2; assay type: biochemical
Method in brief: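 ErbB2 phosphorylates 250 nM biotin-TK substrate at 1 mM ATP in 25 mM HEPES pH 7.4, 10 mM MgCl2, 0.01% Triton X-100 and 2% DMSO, for 30 min at 22 °C. Product is detected by HTRF with Sa-XL665 and TK-Ab-Cryptate. Percent of control is set by DMSO-only wells and pre-quenched wells.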

[4] = target: ErbB2 insYVMA (HER2-YVMA, SEQ ID NO: 2) (Homo sapiens, UniProt P04626, INS775YVMA/P1170A); experiment: biochemical; conditions: ErbB2 insYVMA enzyme assay; read-out: Assay 1 IC50
[5] = target: EGFR (Homo sapiens (Human), UniProt P00533); experiment: ErbB enzyme assay (CisBio HTRF KinEASE-TK), Assay 3; assay type: biochemical
Method in brief: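 Kinase incubated 30 min at 22 °C with 250 nM biotinylated TK substrate, 1 mM ATP and serially diluted compound in 25 mM HEPES pH 7.4, 10 mM MgCl2, 0.01% Triton X-100, 2% DMSO. Phosphorylation read by HTRF (Sa-XL665/TK-Ab-Cryptate); IC50 from 4-parameter fit of percent of control.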

[6] = target: EGFR wild type (EGFR WT) (Homo sapiens (Human), UniProt P00533); experiment: Cellular phosphorylation assay, EGF-stimulated EGFR phosphorylation in engineered NIH 3T3 cells, Phospho-EGFR DuoSet IC ELISA, Assay 5; assay type: cell-based
Method in brief: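 NIH 3T3 cells expressing EGFR WT (20,000/well, attached overnight) were exposed to serially diluted compound for 1 h at 37 °C, then stimulated with 100 ng/ml rEGF for 10 min. Phospho-EGFR in lysates measured by sandwich ELISA optical density; IC50 from curves.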

[7] = LLC-PK1, Assay 6 Pe Ratio, efflux ratio Papp(B-A)/Papp(A-B), MDR1 transfected LLC-PK1

ErbB2 insYVMA (HER2-YVMA, SEQ ID NO: 2), sequence (P04626 with tags, fused parts or gaps INS775YVMA/P1170A limits assumed): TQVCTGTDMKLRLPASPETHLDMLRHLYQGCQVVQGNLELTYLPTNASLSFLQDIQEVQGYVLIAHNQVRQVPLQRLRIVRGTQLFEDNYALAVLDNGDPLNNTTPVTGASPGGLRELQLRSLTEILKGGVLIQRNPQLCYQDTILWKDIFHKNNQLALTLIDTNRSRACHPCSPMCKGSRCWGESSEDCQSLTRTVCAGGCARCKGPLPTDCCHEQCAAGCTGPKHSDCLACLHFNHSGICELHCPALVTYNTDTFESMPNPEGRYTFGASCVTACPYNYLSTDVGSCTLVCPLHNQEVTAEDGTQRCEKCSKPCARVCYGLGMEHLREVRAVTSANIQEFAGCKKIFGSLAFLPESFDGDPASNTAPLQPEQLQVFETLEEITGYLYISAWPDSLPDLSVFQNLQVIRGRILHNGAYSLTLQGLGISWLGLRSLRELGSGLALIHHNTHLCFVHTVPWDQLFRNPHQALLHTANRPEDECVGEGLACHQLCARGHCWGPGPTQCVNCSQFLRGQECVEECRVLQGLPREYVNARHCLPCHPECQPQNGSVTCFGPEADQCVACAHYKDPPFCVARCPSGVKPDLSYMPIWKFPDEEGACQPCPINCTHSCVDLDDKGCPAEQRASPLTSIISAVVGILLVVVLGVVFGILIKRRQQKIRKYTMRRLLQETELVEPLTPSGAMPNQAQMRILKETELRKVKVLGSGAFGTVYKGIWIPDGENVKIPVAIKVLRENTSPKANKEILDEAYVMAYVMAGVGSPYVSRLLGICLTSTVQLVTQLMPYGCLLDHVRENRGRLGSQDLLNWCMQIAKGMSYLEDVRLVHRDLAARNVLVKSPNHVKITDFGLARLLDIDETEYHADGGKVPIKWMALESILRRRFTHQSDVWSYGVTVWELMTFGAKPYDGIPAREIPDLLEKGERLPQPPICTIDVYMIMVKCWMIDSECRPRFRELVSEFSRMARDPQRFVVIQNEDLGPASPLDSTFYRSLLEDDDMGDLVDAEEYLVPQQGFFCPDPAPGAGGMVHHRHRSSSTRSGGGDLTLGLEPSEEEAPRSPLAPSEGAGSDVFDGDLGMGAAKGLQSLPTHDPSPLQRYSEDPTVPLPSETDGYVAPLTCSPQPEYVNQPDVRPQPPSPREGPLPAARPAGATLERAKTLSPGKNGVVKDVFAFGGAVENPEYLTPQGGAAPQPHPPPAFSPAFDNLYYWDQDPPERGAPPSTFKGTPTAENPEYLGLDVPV
ErbB2 with Exon 20 YVMA insertion (HER2-YVMA), sequence (P04626 other isoform, or with tags, fused parts or gaps ins YVMA behind 775): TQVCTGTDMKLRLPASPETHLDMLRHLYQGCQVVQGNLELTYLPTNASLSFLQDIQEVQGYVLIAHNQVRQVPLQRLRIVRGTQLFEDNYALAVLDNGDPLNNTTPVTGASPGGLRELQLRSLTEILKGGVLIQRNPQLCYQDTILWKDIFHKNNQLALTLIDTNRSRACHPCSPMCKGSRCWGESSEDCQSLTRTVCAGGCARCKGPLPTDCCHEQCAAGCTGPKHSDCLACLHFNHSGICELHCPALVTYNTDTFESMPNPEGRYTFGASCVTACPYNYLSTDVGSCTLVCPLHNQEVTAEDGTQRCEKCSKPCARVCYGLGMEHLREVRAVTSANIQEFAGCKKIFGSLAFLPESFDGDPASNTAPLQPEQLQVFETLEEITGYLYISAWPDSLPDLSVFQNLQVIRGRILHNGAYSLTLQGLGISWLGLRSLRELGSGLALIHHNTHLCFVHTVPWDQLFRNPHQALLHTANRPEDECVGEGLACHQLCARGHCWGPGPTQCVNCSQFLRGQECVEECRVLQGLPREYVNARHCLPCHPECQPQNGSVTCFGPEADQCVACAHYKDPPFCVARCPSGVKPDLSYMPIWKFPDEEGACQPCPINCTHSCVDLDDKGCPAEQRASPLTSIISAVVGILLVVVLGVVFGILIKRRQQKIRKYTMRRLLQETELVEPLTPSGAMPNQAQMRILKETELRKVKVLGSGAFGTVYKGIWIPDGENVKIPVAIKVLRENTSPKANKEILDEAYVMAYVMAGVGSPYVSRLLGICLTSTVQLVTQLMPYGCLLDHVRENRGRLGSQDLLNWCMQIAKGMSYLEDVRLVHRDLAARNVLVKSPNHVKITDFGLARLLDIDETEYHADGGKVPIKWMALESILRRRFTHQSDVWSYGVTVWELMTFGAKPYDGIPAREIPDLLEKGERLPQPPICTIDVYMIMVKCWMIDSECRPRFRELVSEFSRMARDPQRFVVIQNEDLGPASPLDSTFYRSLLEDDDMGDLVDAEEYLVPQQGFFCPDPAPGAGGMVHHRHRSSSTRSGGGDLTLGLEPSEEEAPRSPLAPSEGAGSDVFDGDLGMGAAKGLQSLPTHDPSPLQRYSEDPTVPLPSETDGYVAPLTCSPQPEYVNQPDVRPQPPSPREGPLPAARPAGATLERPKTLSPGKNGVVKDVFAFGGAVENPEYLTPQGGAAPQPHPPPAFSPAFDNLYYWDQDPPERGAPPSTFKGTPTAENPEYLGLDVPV
ErbB2 WT, sequence (P04626 23-1255): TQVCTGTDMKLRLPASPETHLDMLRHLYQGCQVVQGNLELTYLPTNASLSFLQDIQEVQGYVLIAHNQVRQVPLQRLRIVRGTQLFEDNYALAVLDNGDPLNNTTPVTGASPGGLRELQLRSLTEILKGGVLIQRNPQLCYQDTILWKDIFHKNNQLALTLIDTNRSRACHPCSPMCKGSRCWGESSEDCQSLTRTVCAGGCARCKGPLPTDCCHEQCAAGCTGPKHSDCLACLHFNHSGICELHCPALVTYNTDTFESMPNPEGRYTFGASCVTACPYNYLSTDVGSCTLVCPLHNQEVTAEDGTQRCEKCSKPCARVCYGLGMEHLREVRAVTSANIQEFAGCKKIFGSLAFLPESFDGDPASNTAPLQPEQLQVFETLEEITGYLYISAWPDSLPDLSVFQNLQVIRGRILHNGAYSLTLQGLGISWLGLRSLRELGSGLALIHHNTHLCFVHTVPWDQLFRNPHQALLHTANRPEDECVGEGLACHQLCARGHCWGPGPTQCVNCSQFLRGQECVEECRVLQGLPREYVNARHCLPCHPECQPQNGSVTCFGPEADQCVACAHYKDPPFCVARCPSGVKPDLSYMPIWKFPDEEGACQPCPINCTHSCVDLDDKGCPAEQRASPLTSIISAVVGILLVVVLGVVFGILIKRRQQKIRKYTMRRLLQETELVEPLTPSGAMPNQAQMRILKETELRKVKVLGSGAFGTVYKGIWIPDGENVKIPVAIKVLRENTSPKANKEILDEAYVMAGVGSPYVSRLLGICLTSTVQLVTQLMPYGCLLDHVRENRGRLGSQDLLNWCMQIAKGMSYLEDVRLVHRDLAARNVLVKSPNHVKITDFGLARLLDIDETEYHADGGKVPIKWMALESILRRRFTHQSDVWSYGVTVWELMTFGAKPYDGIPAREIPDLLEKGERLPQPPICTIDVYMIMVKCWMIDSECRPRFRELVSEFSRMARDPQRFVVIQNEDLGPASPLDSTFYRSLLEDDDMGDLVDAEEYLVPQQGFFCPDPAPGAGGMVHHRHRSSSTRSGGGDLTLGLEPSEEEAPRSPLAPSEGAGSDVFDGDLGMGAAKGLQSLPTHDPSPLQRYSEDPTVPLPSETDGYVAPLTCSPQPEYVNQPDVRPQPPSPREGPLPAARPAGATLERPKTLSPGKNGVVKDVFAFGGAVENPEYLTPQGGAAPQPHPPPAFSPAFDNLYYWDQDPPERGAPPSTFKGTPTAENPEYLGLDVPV
EGFR, sequence (P00533 25-1210): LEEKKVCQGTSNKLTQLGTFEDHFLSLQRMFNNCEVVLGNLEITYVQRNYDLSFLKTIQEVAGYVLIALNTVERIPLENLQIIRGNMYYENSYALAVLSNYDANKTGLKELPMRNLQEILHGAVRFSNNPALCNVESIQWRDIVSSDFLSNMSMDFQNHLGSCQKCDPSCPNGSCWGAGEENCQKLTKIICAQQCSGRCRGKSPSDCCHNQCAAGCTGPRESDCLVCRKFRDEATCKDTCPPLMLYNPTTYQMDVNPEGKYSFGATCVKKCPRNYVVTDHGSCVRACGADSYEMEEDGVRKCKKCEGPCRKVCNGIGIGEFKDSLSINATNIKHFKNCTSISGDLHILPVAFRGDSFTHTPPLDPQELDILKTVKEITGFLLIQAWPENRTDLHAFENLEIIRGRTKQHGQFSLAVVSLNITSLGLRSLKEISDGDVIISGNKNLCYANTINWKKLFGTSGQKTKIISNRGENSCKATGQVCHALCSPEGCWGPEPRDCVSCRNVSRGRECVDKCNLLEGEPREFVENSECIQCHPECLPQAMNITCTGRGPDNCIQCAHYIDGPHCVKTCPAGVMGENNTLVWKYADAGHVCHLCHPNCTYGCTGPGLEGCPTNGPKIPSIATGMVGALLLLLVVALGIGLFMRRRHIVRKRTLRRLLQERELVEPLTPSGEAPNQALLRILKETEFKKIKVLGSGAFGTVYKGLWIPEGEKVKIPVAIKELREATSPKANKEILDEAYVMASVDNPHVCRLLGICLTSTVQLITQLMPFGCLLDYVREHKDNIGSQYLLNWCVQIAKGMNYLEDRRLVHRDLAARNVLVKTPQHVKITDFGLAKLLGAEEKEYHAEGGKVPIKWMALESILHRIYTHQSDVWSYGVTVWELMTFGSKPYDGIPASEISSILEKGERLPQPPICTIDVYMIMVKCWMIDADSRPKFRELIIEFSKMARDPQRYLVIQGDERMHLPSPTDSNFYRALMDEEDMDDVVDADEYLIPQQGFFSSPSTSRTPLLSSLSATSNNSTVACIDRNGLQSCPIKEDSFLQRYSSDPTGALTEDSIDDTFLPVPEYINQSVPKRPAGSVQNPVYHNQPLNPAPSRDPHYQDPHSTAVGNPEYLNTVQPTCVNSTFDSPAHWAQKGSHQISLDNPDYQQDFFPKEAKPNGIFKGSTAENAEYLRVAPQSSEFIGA

SMILES | IC50 [1] [nM] | efflux ratio at 2 h, 1 μM [2, 7] | IC50 [3] [nM] | IC50 [4] [nM] | IC50 [5] [nM] | IC50 [6] [nM] | efflux ratio at 2 h, 1 μM ([2]; LLC-PK1)
Cc1cc(Nc2ncnc3cnc(O[C@H]4CCNC[C@@H]4F)nc23)ccc1Oc1ccc2c(c1)ncn2C [Example 285] | 53.2 | 72.1 | 787 | 83.9 | ≥ 10000 | ≥ 5000 | –
Cc1cc(Nc2ncnc3cnc(N4CCOC(C(F)F)C4)nc23)ccc1Oc1ccc2c(c1)ncn2C (stereo not drawn) [Example 181, 6-(2-(difluoromethyl)morpholino)-N-(3-methyl-4-((1-methyl-1H-benzo[d]imidazol-5-yl)oxy)phenyl)pyrimido[5,4-d]pyrimidin-4-amine] | 53.4 | 0.3 | 171 | 81.5 | ≥ 10000 | ≥ 5000 | –
Cc1cc(Nc2ncnc3cnc(N4CC(CS(C)(=O)=O)C4)nc23)ccc1Oc1ccc2c(c1)ncn2C [Example 232] | 39.6 | 31.3 | 12.4 | 15.3 | 6410 | ≥ 5000 | –
Cc1cc(Nc2ncnc3cnc(N4CC5(CC5)CO4)nc23)ccc1Oc1ccc2c(c1)ncn2C [Example 187, N-(3-methyl-4-((1-methyl-1H-benzo[d]imidazol-5-yl)oxy)phenyl)-6-(5-oxa-6-azaspiro[2.4]heptan-6-yl)pyrimido[5,4-d]pyrimidin-4-amine] | 14.3 | – | 109 | 38.4 | ≥ 10000 | ≥ 5000 | 2.7
Cc1cc(Nc2ncnc3cnc(NC4COC4)nc23)ccc1Oc1ccc2c(c1)ncn2C [Example 259] | 19.6 | 8.8 | 45.3 | 29.7 | ≥ 10000 | ≥ 5000 | –
Cc1cc(Nc2ncnc3cnc(N4CCOC5CC54)nc23)ccc1Oc1ccc2c(c1)ncn2C (racemic) [Example 60, 6-(2-oxa-5-azabicyclo[4.1.0]heptan-5-yl)-N-(3-methyl-4-((1-methyl-1H-benzo[d]imidazol-5-yl)oxy)phenyl)pyrimido[5,4-d]pyrimidin-4-amine] | 8.5 | 2.6 | 27.6 | 19.4 | 8860 | ≥ 5000 | –
Cc1cc(Nc2ncnc3cnc(N4CCN(C)[C@H](C)C4)nc23)ccc1Oc1ccc2c(c1)ncn2C [Example 281] | 26.6 | 2.1 | 84.2 | 23.8 | ≥ 10000 | ≥ 5000 | –
Cc1cc(Nc2ncnc3cnc(NC45CC(C4)C5)nc23)ccc1Oc1ccc2c(c1)ncn2C [Example 18, N2-(bicyclo[1.1.1]pentan-1-yl)-N8-(3-methyl-4-((1-methyl-1H-benzo[d]imidazol-5-yl)oxy)phenyl)pyrimido[5,4-d]pyrimidine-2,8-diamine] | 47.8 | 2.6 | 167 | 122 | ≥ 10000 | ≥ 5000 | –
Cc1cc(Nc2ncnc3cnc(N4CCN(C)C4=O)nc23)ccc1Oc1ccc2c(c1)ncn2C [Example 28, 1-methyl-3-(8-((3-methyl-4-((1-methyl-1H-benzo[d]imidazol-5-yl)oxy)phenyl)amino)pyrimido[5,4-d]pyrimidin-2-yl)imidazolidin-2-one] | 24.8 | 13.3 | 163 | 68.7 | ≥ 10000 | ≥ 5000 | –
Cc1cc(Nc2ncnc3cnc(N4CCCC45COC5)nc23)ccc1Oc1ccc2c(c1)ncn2C [Example 230] | 15.7 | 2.5 | 29.2 | 25.8 | 8560 | ≥ 5000 | –
Cc1cc(Nc2ncnc3cnc(N4C[C@H]5CCCN5C4=O)nc23)ccc1Oc1ccc2c(c1)ncn2C [Example 66, (R)-2-(8-((3-methyl-4-((1-methyl-1H-benzo[d]imidazol-5-yl)oxy)phenyl)amino)pyrimido[5,4-d]pyrimidin-2-yl)hexahydro-3H-pyrrolo[1,2-c]imidazol-3-one] | 41.4 | 11.6 | 180 | 53.9 | ≥ 10000 | ≥ 5000 | –
Cc1cc(Nc2ncnc3cnc(N4CCCC4=O)nc23)ccc1Oc1ccc2c(c1)ncn2C [Example 34, 1-(8-((3-methyl-4-((1-methyl-1H-benzo[d]imidazol-5-yl)oxy)phenyl)amino)pyrimido[5,4-d]pyrimidin-2-yl)pyrrolidin-2-one] | 30.5 | 6.3 | 307 | 124 | ≥ 10000 | ≥ 5000 | –
Cc1cc(Nc2ncnc3cnc(-c4cscn4)nc23)ccc1Oc1ccc2c(c1)ncn2C [Example 235] | 5.6 | 2.9 | 54.1 | 74.5 | ≥ 10000 | ≥ 5000 | –
Cc1cc(Nc2ncnc3cnc(N[C@H]4CN(C)C[C@H]4F)nc23)ccc1Oc1ccc2c(c1)ncn2C [Example 279] | 1.2 | 16.6 | 50.6 | 25 | 4090 | ≥ 5000 | –
CC(=O)N1CCN(c2ncc3ncnc(Nc4ccc(Oc5ccc6c(c5)ncn6C)c(C)c4)c3n2)CC1 [Example 24, 1-(4-(8-((3-methyl-4-((1-methyl-1H-benzo[d]imidazol-5-yl)oxy)phenyl)amino)pyrimido[5,4-d]pyrimidin-2-yl)piperazin-1-yl)ethan-1-one] | 7.1 | 30 | 31.5 | 18.2 | ≥ 10000 | ≥ 5000 | –
Cc1cc(Nc2ncnc3cnc(N(C)CC4(O)CC4)nc23)ccc1Oc1ccc2c(c1)ncn2C [Example 166, 1-((methyl(8-((3-methyl-4-((1-methyl-1H-benzo[d]imidazol-5-yl)oxy)phenyl)amino)pyrimido[5,4-d]pyrimidin-2-yl)amino)methyl)cyclopropan-1-ol] | 3 | 4.6 | 39.7 | 16.1 | ≥ 10000 | ≥ 5000 | –
Cc1cc(Nc2ncnc3cnc(N[C@@H]4CCN(C)C[C@@H]4F)nc23)ccc1Oc1ccc2c(c1)ncn2C [Example 84, N2-((3S,4R)-3-fluoro-1-methylpiperidin-4-yl)-N8-(3-methyl-4-((1-methyl-1H-benzo[d]imidazol-5-yl)oxy)phenyl)pyrimido[5,4-d]pyrimidine-2,8-diamine] | 25.5 | 10.2 | 47.2 | 14 | 5380 | ≥ 5000 | –
Cc1cc(Nc2ncnc3cnc(N[C@@H]4CCNC[C@@H]4F)nc23)ccc1Oc1ccc2c(c1)ncn2C [Example 83, N2-((3S,4R)-3-fluoropiperidin-4-yl)-N8-(3-methyl-4-((1-methyl-1H-benzo[d]imidazol-5-yl)oxy)phenyl)pyrimido[5,4-d]pyrimidine-2,8-diamine] | 20.3 | 76 | 34.5 | 12.4 | 5650 | ≥ 5000 | –
Cc1cc(Nc2ncnc3cnc(NCC(F)F)nc23)ccc1Oc1ccc2c(c1)ncn2C [Example 251] | 6.6 | 2.3 | 21.2 | 11.7 | 1800 | ≥ 5000 | –
Cc1cc(Nc2ncnc3cnc(NC4=NC(C)(C)CO4)nc23)ccc1Oc1ccc2c(c1)ncn2C [Example 32, N2-(4,4-dimethyl-4,5-dihydrooxazol-2-yl)-N8-(3-methyl-4-((1-methyl-1H-benzo[d]imidazol-5-yl)oxy)phenyl)pyrimido[5,4-d]pyrimidine-2,8-diamine] | 13.4 | 34.5 | 43.4 | 34.6 | ≥ 10000 | ≥ 5000 | –
Cc1cc(Nc2ncnc3cnc(N4C[C@@H]5CCCN5C4=O)nc23)ccc1Oc1ccc2c(c1)ncn2C [Example 254] | 44 | 9.9 | 114 | 53.2 | ≥ 10000 | ≥ 5000 | –
Cc1cc(Nc2ncnc3cnc(N4CC[C@@H](S(C)(=O)=O)C4)nc23)ccc1Oc1ccc2c(c1)ncn2C [Example 125, (R)—N-(3-methyl-4-((1-methyl-1H-benzo[d]imidazol-5-yl)oxy)phenyl)-6-(3-(methylsulfonyl)pyrrolidin-1-yl)pyrimido[5,4-d]pyrimidin-4-amine] | 32.4 | 36.1 | 55.6 | 24.8 | ≥ 10000 | ≥ 5000 | –
